Data set [1] concerns mouse oxaliplatin-induced acute chemotherapy pain model. The experiment in a line: Mouse oxaliplatin chemotherapy pain model, different doses (Example 7). In kind it is in vivo. Conditions: 2 mg/kg s.c. (AJ003; AJ003-36 medium dose). Here is the method:
Oxaliplatin was dissolved in 5% glucose solution to a concentration of 1 mg/mL. For model induction, each male C57 mouse (Hangzhou Ziyuan Experimental Animal Technology Co., Ltd.) received a single intraperitoneal injection of oxaliplatin at 10 mg/kg. Mice in the negative control or blank control group received 5% glucose solution. Approximately one week after model induction, mechanical pain thresholds of the mice were measured three times per mouse, and the average value was calculated. Mice were then randomly assigned to groups based on their pain thresholds. Drug administration was carried out according to the dosing schedule shown in Table 6, with a single dose per mouse. Mechanical pain thresholds were measured at 0.5, 1, 2, 4, 6, and 8 h post-dose. […] Table 6 Dosing Scheme for Oxaliplatin Chemotherapy Pain Model

The next data set concerns rat CCI model. As to the kind of experiment: Rat CCI (chronic constriction injury) model (Example 9). Type of data set: in vivo. The following applies: 1 mg/kg s.c. (AJ003; AJ003-36 medium dose). The text has this:
Neuropathic pain has many types, and animal models can simulate clinical neuropathic pain. Common SD rat sciatic nerve neuropathic pain models include CCI (Chronic Constriction Injury), SNI (Spared Nerve Injury), SNL (Spinal Nerve Ligation), and CCD (using stainless steel wire through the intervertebral foramen to fix and compress the dorsal root ganglion). Among them, the CCI model is widely used to study neuropathic pain, providing a basis for further research on mechanisms and strategies for nerve injury repair (Wen Xiaojun, Medical Information, Jan. 2018, Vol. 31, No.1). In this example, the CCI model was employed.
Except for the control group, the remaining SD rats were anesthetized via intraperitoneal injection of 10% chloral hydrate saline solution at a dose of 0.3 mL per 100 g body weight, and surgical modeling was performed. The right hind limb skin was carefully incised, muscles were separated, and the sciatic nerve was ligated three times using 4-0 surgical silk, spaced 1 mm apart. Muscles and skin were sutured, and antibiotics were applied to the wound to prevent infection. […] Approximately 10 days post-surgery, plantar pain thresholds were measured three times for each rat, and the average value was calculated. Rats were randomly assigned to groups based on pain thresholds. Drug administration was performed according to Table 8, and plantar pain thresholds were measured at 2 h, 4 h, 6 h, and 8 h after administration.

Data set [2] can be described thus: In vitro plasma stability and predicted half-life (HPLC main peak area, Example 3). In kind it is in vitro ADME. Conditions: human plasma (EDTA anticoagulant), 37°C, sampled up to 24 h, predicted half-life calculated with Winolin. Here is the method:
The modified peptides in this study were designed with non-natural amino acid substitutions at certain non-essential positions to enhance peptide stability and improve druggability. Peptides were dissolved in deionized water to 2 mg/mL, then diluted with acetonitrile to 1 mg/mL and filtered through an organic membrane. 200 µL of the filtrate was transferred to an LC vial as the peptide control. 300 µL of human plasma (comprising EDTA as anticoagulant, Nanjing Senbeijia Biotechnology Co., Ltd., Lot No. SBJ-P-HU011-100 mL) was mixed with 300 µL acetonitrile, centrifuged at 4°C and 12,000 rpm for 5 minutes. The supernatant was filtered through an organic membrane, and 200 µL of the filtrate was transferred to an LC vial as the plasma blank control. For peptide samples, 10 mg of peptide was weighed mixed with 5 mL of human plasma and vortexed thoroughly. 300 µL of peptide-containing plasma was mixed with 300 µL acetonitrile, centrifuged at 4°C and 12,000 rpm for 5 minutes, and the supernatant was filtered through an organic membrane. 200 µL of the filtrate was transferred to an LC vial as the 0 min sample. Peptide-containing plasma was incubated in a 37°C water bath, and samples at other time points were collected using the same procedure as the 0 min sample. For peptides AJ003 and AJ003-1, the sampling time points were 0 min, 5 min, 10 min, 20 min, 30 min, 1 h, 2 h, 4 h, 6 h, 10 h, 12 h, and 24 h. For modified peptides AJ003-34, AJ003-35, AJ003-36, AJ003-37, AJ003-38, AJ003-39, AJ003-40, AJ003-41, and AJ003-42, the time points were 0 min, 10 min, 30 min, 1 h, 4 h, 6 h, 10 h, 12 h, and 24 h. All peptide sample series were analyzed by HPLC, recording the changes in main peak areas over plasma incubation time. Predicted in vitro half-lives were calculated using the pharmacokinetic software Winolin. Due to the presence of tautomers, AJ003 peak areas were difficult to integrate accurately over time. AJ003-1 is an analog of AJ003 in which the threonine at position 5 is substituted with D-threonine; its sequence differs from AJ003 by only one amino acid configuration. […] The in vitro plasma half-lives of modified peptides AJ003-34, AJ003-35, AJ003-36, AJ003-37, AJ003-38, AJ003-39, AJ003-40, AJ003-41, and AJ003-42 were 61.9 h, 45.3 h, 65.3 h, 71.0 h, 26.7 h, 43.0 h, 84.0 h, 30.0 h, and 61.4 h, respectively.

The term half-life denotes the time in which the quantity being followed falls by half.

Positions of bridges follow the written chain, without caps; N, C: chain ends. Non-standard residues stand in square brackets, D forms with d. Residues, ends and D or L forms follow the SMILES beside them. Hyp = O=C(O)[C@@H]1C[C@@H](O)CN1; Nle = CCCC[C@H](N)C(=O)O; Orn = NCCC[C@H](N)C(=O)O

As for `CC(C)C[C@H](NC(=O)[C@@H](NC(=O)[C@H]1CSSC[C@H](NC(=O)[C@H](CO)NC(=O)CN)C(=O)N[C@@H](CO)C(=O)N[C@@H]([C@@H](C)O)C(=O)N2CCC[C@H]2C(=O)N2CCC[C@H]2C(=O)N[C@@H](CO)C(=O)N1)C(C)C)C(=O)N[C@@H](Cc1ccc(O)cc1)C(=O)N[C@@H](CO)C(=O)O` [AJ003, GSCSTPPS-(D-Cys)-VLYS (disulfide bond between positions 3 and 9)] (H-GSCSTPPS[dC]VLYS-OH; disulfide 3-9), the “analgesic activity compared with the model group (mechanical pain threshold)” value in data set [1] (single dose, 0.5, 1, 2 and 4 h post-dose) was “significant analgesic activity”; in data set [1] (single dose, 6 h post-dose) it was “no significant effect”; in data set [1] (single dose, 8 h post-dose) it was “no significant effect”; in the data set with rat CCI model (Day 1 of dosing, 2 h and 4 h) it was “significant analgesic activity”; in the data set on rat CCI model (Day 1 of dosing, 6 h) it was “no significant difference”; with rat CCI model (Day 1 of dosing, 8 h) it was “not significantly different”. Also, the “analgesic activity compared with the model group (mechanical pain threshold)” value in the data set on rat CCI model (Day 4 of dosing, 2 h and 4 h) is “significant analgesic activity”; with rat CCI model (Day 4 of dosing, 6 h and 8 h), “no longer significant”; in the data set with rat CCI model (Day 7 of dosing, 2 h and 4 h) it was “significant analgesic activity”; with rat CCI model (Day 7 of dosing, 6 h), “no significant effect”; in the data set with rat CCI model (Day 7 of dosing, 8 h), “not significant”; in the data set with rat CCI model (Day 10 of dosing, 2 h and 4 h) it was “significant analgesic activity”. The “analgesic activity compared with the model group (mechanical pain threshold)” value in the data set with rat CCI model (Day 10 of dosing, 6 h) is recorded as “no significant effect”; in the data set with rat CCI model (Day 10 of dosing, 8 h) it was “not significant”; with rat CCI model (Day 14 of dosing, 2 h and 4 h), “significant analgesic activity”; in the data set on rat CCI model (Day 14 of dosing, 6 h), “no significant effect”; in the data set with rat CCI model (Day 14 of dosing, 8 h), “not significant”.

Turning to `CCCC[C@H](NC(=O)[C@@H](NC(=O)[C@H]1CSSC[C@H](NC(=O)[C@H](CO)NC(=O)CN)C(=O)N[C@@H](CO)C(=O)N[C@H]([C@H](C)O)C(=O)N2C[C@H](O)C[C@H]2C(=O)N2C[C@H](O)C[C@H]2C(=O)N[C@@H](CO)C(=O)N1)C(C)C)C(=O)N[C@@H](Cc1c[nH]c2ccccc12)C(=O)N[C@@H](CCCN)C(N)=O` [AJ003-40, GSCS-(D-Thr)-Hyp-Hyp-S-(D-Cys)-V-Nle-W-Orn-NH2 (3,9 disulfide bond)] (H-GSCS[dT][Hyp][Hyp]S[dC]V[Nle]W[Orn]-NH2; disulfide 3-9), in data set [2], the half-life at 2 mg/mL is 84 h.

The values are drawn from patent EP4725956A1, “MODIFIED POLYPEPTIDE AND USE THEREOF IN FIELD OF ANALGESIA” (Nanjing Anji Biotechnology Co., Ltd., priority 2023, dated 2024).
